Measurements as given in ChEMBL document CHEMBL4118242, “Computer-aided discovery and biological characterization of human lactate dehydrogenase 5 inhibitors with anti-osteosarcoma activity” (Bioorg Med Chem Lett, 2018).
Calls of active or inactive are those of the source. The rule behind the calls is not given here.

How the values were obtained:
[1] = biological target: T1, L-lactate dehydrogenase A chain (Homo sapiens, UniProt P00338); assay: Inhibition of human LDH5 at 10 uM using pyruvate as substrate after 10 mins
MG-63 [2] = assay: Antiproliferative activity against human MG63 cells at 4 uM after 72 hrs by MTT assay; type: functional, cell-based
MG-63 [3] = assay: Antiproliferative activity against human MG63 cells at 10 uM after 72 hrs by MTT assay; type: functional, cell-based
[4] = biological target: T1, L-lactate dehydrogenase A chain; assay: Inhibition of human LDH5 using pyruvate as substrate after 10 mins
[5] = biological target: T1, L-lactate dehydrogenase A chain; assay: Inhibition of human LDH5 at 1 uM using pyruvate as substrate after 10 mins
MG-63 [6] = assay: Antiproliferative activity in human MG63 cells at 4 uM after 24 to 72 hrs by IncuCyte zoom live cell imaging method; type: functional, cell-based
MG-63 [7] = assay: Antiproliferative activity against human MG63 cells after 72 hrs by MTT assay; type: functional, cell-based; conditions: MG-63, 72 h
[8] = biological target: T1, L-lactate dehydrogenase A chain; assay: Inhibition of LDH5 in human MG63 cells assessed as decrease in lactate formation after 4 hrs; type: cell-based
[9] = biological target: T1, L-lactate dehydrogenase A chain; assay: Inhibition of LDH5 in human MG63 cells assessed as induction of ROS generation at 5 to 10 uM after 4 hrs by DCFH-DA staining-based fluorescence assay; type: cell-based
[10] = biological target: T1, L-lactate dehydrogenase A chain; assay: Inhibition of LDH5 in human MG63 cells assessed as increase in oxygen consumption rate at 1 to 10 uM after 4 hrs; type: cell-based
[11] = biological target: T1, L-lactate dehydrogenase A chain; assay: Inhibition of LDH5 in human MG63 cells assessed as decrease in extracellular acidification rate after 4 hrs; type: cell-based
[12] = biological target: T1, L-lactate dehydrogenase A chain; assay: Inhibition of LDH5 in human MG63 cells assessed as increase in oxygen consumption rate at 1 uM after 4 hrs; type: cell-based

| EC50 [4] [nM] | inhibition [5] | Structure (SMILES) | inhibition [1] | Activity (MG-63 [2]) | Activity (MG-63 [3]) | IC50 (MG-63 [7]) [nM] | also measured |
| --- | --- | --- | --- | --- | --- | --- | --- |
|  |  | Cc1nc(C)c(CC(=O)N2CCN(CCOc3ccccc3)CC2)c(=O)[nH]1 | inactive |  |  |  |  |
|  |  | COc1ccc([C@@H](NCc2c[nH]nc2-c2ccc(F)cc2)c2ccncc2)cc1 | inactive |  |  |  |  |
|  |  | O=C(Cn1ccnc1-c1ccccc1)NC[C@@H]1COc2ccccc2O1 |  | inactive | Active |  |  |
| 670 | Active | Cc1cccc(OC[C@H](O)CN2CCN(CCN3C(=O)c4cccc5cccc(c45)C3=O)CC2)c1C |  | inactive | Active |  |  |
| 390 | Active | COc1cccc(CN2CCCCC23CC3)c1OC[C@@H](O)CN1CCOCC1 |  |  | Active | 3180 | Activity (MG-63 [6]): Active; inhibition [8]: Dose-dependent effect; Activity [9]: Active; Activity [10]: Active; inhibition [11]: Dose-dependent effect |
|  |  | O=C1N[C@](c2ccc(N3CCOCC3)cc2)(c2ccsc2)CC(O)=C1Sc1ccccc1Cl |  |  |  | 660 | Activity [12]: Active |
